This is an account of results in patent EP1886694A1, “Peroral formulation of dienogest and ethinylestradiol for contraception” (priority 2006, dated 2008).

One data set deals with Ovulationshemmung. As to the kind of experiment: optimal dose for reliable ovulation inhibition. The data set is classed as in vivo. Particulars: mikronisiert, mittlere Teilchengröße ca. 3 µm. The method, then:
Als schwerlöslicher Wirkstoff wird Dienogest üblicherweise mikronisiert mit einer mittleren Teilchengröße von ca. 3 µm eingesetzt. Mit dieser Partikelgrößenverteilung wurde als optimale Dosis für eine sichere Ovulationshemmung 2 mg Dienogest ermittelt.

The conditions of data set [1]: Einzeldosis; mittlere Partikelgröße 3,7 µm compared with 22 µm; cited from earlier work.

Structures are written as SMILES.

Consider `C[C@]12CCC3=C4CCC(=O)C=C4CC[C@H]3[C@@H]1CC[C@@]2(O)CC#N` [Dienogest, 17α-Cyanomethyl-17-β-hydroxyestra-4,9-dien-3on], for which the “optimale Dosis für eine sichere Ovulationshemmung” value in the data set with Ovulationshemmung is listed as 2 mg.

For `C[C@H]1O[C@@H](O[C@H]2[C@@H](O)C[C@H](O[C@H]3[C@@H](O)C[C@H](O[C@H]4CC[C@@]5(C)[C@H](CC[C@@H]6[C@@H]5C[C@@H](O)[C@]5(C)[C@@H](C7=CC(=O)OC7)CC[C@]65O)C4)O[C@@H]3C)O[C@@H]2C)C[C@H](O)[C@@H]1O` [Digoxin], the Plasmaspiegel result in data set [1] is listed as “fast doppelt so hohe”.
